Reference: patent US12479827B2, “Heteroaromatic carboxamide derivatives as plasma kallikrein inhibitors” (Boehringer Ingelheim International GmbH, priority 2020, dated 2025)

Tests used:
[1] = molecular target: T1, PKK in kaolin activated human platelet poor plasma (Homo sapiens, UniProt P03952); experiment: Inhibition of PKK in kaolin activated human PPP; assay type: biochemical; conditions: 25-750 μg/mL kaolin, global fit, text b200 calls the values IC90;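 note: readout is the rate of fluorogenic substrate cleavage in rfu per min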
T1 construct: Platelet poor plasma (PPP) obtained from human wholeblood; from tissue
T1 sequence (P03952 391-638 limits assumed): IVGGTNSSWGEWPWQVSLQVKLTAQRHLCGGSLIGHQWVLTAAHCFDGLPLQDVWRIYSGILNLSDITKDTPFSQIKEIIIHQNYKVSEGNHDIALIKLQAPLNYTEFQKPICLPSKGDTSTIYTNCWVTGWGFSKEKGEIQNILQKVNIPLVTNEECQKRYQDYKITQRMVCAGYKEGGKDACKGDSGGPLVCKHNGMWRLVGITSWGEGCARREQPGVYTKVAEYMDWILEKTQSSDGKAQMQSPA
T1 sequence (P03952 20-390 limits assumed): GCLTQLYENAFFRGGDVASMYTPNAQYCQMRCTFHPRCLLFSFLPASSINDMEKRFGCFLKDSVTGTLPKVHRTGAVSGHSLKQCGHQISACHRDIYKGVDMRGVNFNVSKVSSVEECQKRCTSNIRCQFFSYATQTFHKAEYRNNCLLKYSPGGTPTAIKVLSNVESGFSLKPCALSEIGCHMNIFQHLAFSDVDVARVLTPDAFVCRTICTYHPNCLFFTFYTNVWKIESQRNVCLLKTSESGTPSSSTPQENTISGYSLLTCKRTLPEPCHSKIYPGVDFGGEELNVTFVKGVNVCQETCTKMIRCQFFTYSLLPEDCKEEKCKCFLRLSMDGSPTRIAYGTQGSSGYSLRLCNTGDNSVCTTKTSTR
Description: Platelet poor plasma (PPP) obtained from human wholeblood, anticoagulated with Na-Citrate, is incubated with various concentrations of the test compound together with either 25, 75, 250, or 750 μg/mL kaolin in assay buffer for 20 min at 37° C. such that for each kaolin dose used a concentration response is obtained for the test compound.

[2] = molecular target: T2, Human PKK (Homo sapiens, UniProt P03952); experiment: Inhibition of PKK using an endpoint assay (human PKK); assay type: biochemical; conditions: fluorogenic substrate H-Pro-Phe-Arg-AMC, 1 h room temperature, method names human or rat PKK, table does not say which
T2 construct: purchased Enzyme Research Laboratories
T2 sequence (P03952 20-390 limits assumed): as above
T2 sequence (P03952 391-638 limits assumed): as the sequence (P03952 391-638 limits assumed) above
Outline: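 Human PKK inhibition measured in 100 mM Tris, 150 mM NaCl, pH 7.8, 0.1% BSA, 0.05% Tween20, 1% DMSO. Endpoint format: reaction stopped with PPACK II at 1 μM final, fluorescence read at 355 nm excitation/460 nm emission.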

| SMILES | IC50 [1] [nM] | IC50 [2] [nM] |
| --- | --- | --- |
| Cc1cc(N2CC3C(C2)C3(F)F)nc(C)c1Cn1cnc(C(=O)N[C@@H]2CCc3c2ncn3C)c1 (stereo partly drawn) [Example 111, 1-[(6-{6,6-Difluoro-3-azabicyclo[3.1.0]hexan-3-yl}-2,4-dimethylpyridin-3-yl)methyl]-N-[(4R)-1-methyl-1H,4H,5H,6H-cyclopenta[d]imidazol-4-yl]-1H-imidazole-4-carboxamide] | 4150 | 8.6 |
| Cn1cnc2c1CC[C@H]2NC(=O)c1cnn(Cc2ccc(N3CC4(CC4)C3)nc2Br)c1 [Example 13, 1-[(6-{5-Azaspiro[2.3]hexan-5-yl}-2-bromopyridin-3-yl)methyl]-N-[(4R)-1-methyl-1H,4H,5H,6H-cyclopenta[d]imidazol-4-yl]-1H-pyrazole-4-carboxamide] | 451 | 1.1 |
| Cn1cnc2c1CC[C@H]2NC(=O)c1cc(Cc2ccc(N3CC4CC4C3)nc2C(F)F)no1 (stereo partly drawn) [Example 144, 3-[(6-{3-Azabicyclo[3.1.0]hexan-3-yl}-2-(difluoromethyl)pyridin-3-yl)methyl]-N-[(4R)-1-methyl-1H,4H,5H,6H-cyclopenta[d]imidazol-4-yl]-1,2-oxazole-5-carboxamide] | 248 | 0.8 |
| Cn1cnc2c1CC[C@H]2NC(=O)c1cnn(Cc2ccc(N3CC4C(C3)C4(F)F)nc2Br)c1 (stereo partly drawn) [Example 15, 1-[(2-Bromo-6-{6,6-difluoro-3-azabicyclo-[3.1.0]hexan-3-yl}pyridin-3-yl)methyl]-N-[(4R)-1-methyl-1H,4H,5H,6H-cyclopenta[d]imidazol-4-yl]-1H-pyrazole-4-carboxamide] | 414 | 1.1 |
| CCCc1nc(N2CC3C(C2)C3(F)F)ccc1Cn1cnc(C(=O)N[C@@H]2CCc3c2ncn3C)c1 (stereo partly drawn) [Example 66, 1-[(6-{6,6-Difluoro-3-azabicyclo[3.1.0]hexan-3-yl}-2-propylpyridin-3-yl)methyl]-N-[(4R)-1-methyl-1H,4H,5H,6H-cyclopenta[d]imidazol-4-yl]-1H-imidazole-4-carboxamide] | 839 | 0.7 |
| Cn1cnc2c1CC[C@H]2NC(=O)c1cnn(Cc2ccc(N3CC4CC4C3)nc2CCO)c1 (stereo partly drawn) [Example 85, 1-[(6-{3-Azabicyclo[3.1.0]hexan-3-yl}-2-(2-hydroxyethyl)-pyridin-3-yl)methyl]-N-[(4R)-1-methyl-1H,4H,5H,6H-cyclopenta[d]imidazol-4-yl]-1H-pyrazole-4-carboxamide] | 132 | 0.8 |
| Cn1cnc2c1CC[C@H]2NC(=O)c1cn(Cc2ccc(N3CC4(CC4)C3)nc2F)nn1 [Example 10, 1-[(6-{5-Azaspiro[2.3]hexan-5-yl}-2-fluoropyridin-3-yl)methyl]-N-[(4R)-1-methyl-1H,4H,5H,6H-cyclo-penta[d]imidazol-4-yl]-1H-1,2,3-triazole-4-carboxamide] | 789 | 2.5 |
| Cn1cnc2c1CC[C@H]2NC(=O)c1cnn(Cc2ccc(N3CC4(CC4)C3)nc2Cl)c1 [Example 56, 1-[(6-{5-Azaspiro[2.3]hexan-5-yl}-2-chloropyridin-3-yl)methyl]-N-[(4R)-1-methyl-1H,4H,5H,6H-cyclopenta[d]imidazol-4-yl]-1H-pyrazole-4-carboxamide] | 586 | 1.8 |
| Cn1cnc2c1CC[C@H]2NC(=O)c1cnn(Cc2ccc(N3CC4CC4C3)c(C#N)n2)c1 (stereo partly drawn) [Example 35, 1-[(5-{3-Azabicyclo[3.1.0]hexan-3-yl}-6-cyanopyridin-2-yl)methyl]-N-[(4R)-1-methyl-1H,4H,5H,6H-cyclopenta[d]imidazol-4-yl]-1H-pyrazole-4-carboxamide] | 259 | 2.2 |
| Cn1cnc2c1CC[C@H]2NC(=O)c1cn(Cc2ccc(N3CC4CC4C3)nc2Cl)nn1 (stereo partly drawn) [Example 32, 1-[(6-{3-Azabicyclo[3.1.0]hexan-3-yl}-2-chloropyridin-3-yl)methyl]-N-[(4R)-1-methyl-1H,4H,5H,6H-cyclopenta-[d]imidazol-4-yl]-1H-1,2,3-triazole-4-carboxamide] | 548 | 1.1 |
| Cn1cnc2c1CC[C@H]2NC(=O)c1cn(Cc2ccc(N3CC4CC4C3)nc2CO)cn1 (stereo partly drawn) [Example 98, 1-[(6-{3-Azabicyclo[3.1.0]hexan-3-yl}-2-(hydroxymethyl)pyridin-3-yl)methyl]-N-[(4R)-1-methyl-1H,4H,5H,6H-cyclopenta[d]imidazol-4-yl]-1H-imidazole-4-carboxamide] | 282 | 1.5 |
| Cn1cnc2c1CC[C@H]2NC(=O)c1cn(Cc2ccc(N3CC4C(C3)C4(F)F)cn2)cn1 (stereo partly drawn) [Example 53, 1-[(5-{6,6-Difluoro-3-azabicyclo[3.1.0]hexan-3-yl}pyridin-2-yl)methyl]-N-[(4R)-1-methyl-1H,4H,5H,6H-cyclopenta[d]imidazol-4-yl]-1H-imidazole-4-carboxamide] | 203 | 2 |
| CCc1nc(N2CC3(CC3)C2)ccc1Cn1cnc(C(=O)N[C@@H]2CCc3c2ncn3C)c1 [Example 37, 1-[(6-{5-Azaspiro[2.3]hexan-5-yl}-2-ethylpyridin-3-yl)methyl]-N-[(4R)-1-methyl-1H,4H,5H,6H-cyclopenta[d]imidazol-4-yl]-1H-imidazole-4-carboxamide] | 125 | 0.9 |
| COc1nc(N2CC3C(C2)C3(F)F)ccc1Cn1cnc(C(=O)N[C@@H]2CCc3c2ncn3C)c1 (stereo partly drawn) [Example 97, 1-[(6-{6,6-Difluoro-3-azabicyclo[3.1.0]hexan-3-yl}-2-methoxypyridin-3-yl)methyl]-N-[(4R)-1-methyl-1H,4H,5H,6H-cyclopenta[d]imidazol-4-yl]-1H-imidazole-4-carboxamide] | 766 | 1.4 |
| Cc1cc(N2CC3C(C2)C3(F)F)nc(C)c1Cn1cc(C(=O)N[C@@H]2CCc3c2ncn3C)cn1 (stereo partly drawn) [Example 112, 1-[(6-{6,6-Difluoro-3-azabicyclo[3.1.0]hexan-3-yl}-2,4-dimethylpyridin-3-yl)methyl]-N-[(4R)-1-methyl-1H,4H,5H,6H-cyclopenta[d]imidazol-4-yl]-1H-pyrazole-4-carboxamide] | 2780 | 12.6 |
| Cn1cnc2c1CC[C@H]2NC(=O)c1cn(Cc2ccc(N3CC4CC4C3)nc2)cn1 (stereo partly drawn) [Example 72, 1-[(6-{3-Azabicyclo[3.1.0]hexan-3-yl}pyridin-3-yl)methyl]-N-[(4R)-1-methyl-1H,4H,5H,6H-cyclopenta[d]imidazol-4-yl]-1H-imidazole-4-carboxamide] | 831 | 3.3 |

Further lines, results first:

| IC50 [1] [nM] | IC50 [2] [nM] | SMILES |
| --- | --- | --- |
| 128 | 0.4 | Cn1cnc2c1CC[C@H]2NC(=O)c1cn(Cc2ccc(N3CC4C(C3)C4(F)F)cc2C#N)cn1 (stereo partly drawn) [Example 210, 1-[(2-cyano-4-{6,6-difluoro-3-azabicyclo-[3.1.0]hexan-3-yl}phenyl)methyl]-N-[(4R)-1-methyl-1H,4H,5H,6H-cyclopenta[d]imidazol-4-yl]-1H-imidazole-4-carboxamide] |
| 202 | 0.7 | Cn1cnc2c1CC[C@H]2NC(=O)c1cn(Cc2ccc(N3CC4CC4C3)c(C#N)c2Cl)cn1 (stereo partly drawn) [Example 203, 1-[(4-{3-azabicyclo[3.1.0]hexan-3-yl}-2-chloro-3-cyanophenyl)methyl]-N-[(4R)-1-methyl-1H,4H,5H,6H-cyclopenta[d]imidazol-4-yl]-1H-imidazole-4-carboxamide] |
| 157 | 0.5 | Cn1cnc2c1CC[C@H]2NC(=O)c1cnn(Cc2ccc(N3CC4CC4C3)c(C#N)c2Cl)c1 (stereo partly drawn) [Example 202, 1-[(4-{3-azabicyclo[3.1.0]hexan-3-yl}-2-chloro-3-cyanophenyl)methyl]-N-[(4R)-1-methyl-1H,4H,5H,6H-cyclopenta[d]imidazol-4-yl]-1H-pyrazole-4-carboxamide] |
| 2270 | 10.9 | Cn1cnc2c1CC[C@H]2NC(=O)c1ccc(Cc2ccc(N3CC4C(C3)C4(F)F)nc2CO)s1 (stereo partly drawn) [Example 185, 5-[(6-{6,6-Difluoro-3-azabicyclo[3.1.0]hexan-3-yl}-2-(hydroxymethyl)pyridin-3-yl)methyl]-N-[(4R)-1-methyl-1H,4H,5H,6H-cyclopenta-[d]imidazol-4-yl]thiophene-2-carboxamide] |
| 193 | 1 | CCc1nc(N2CC3CC3C2)ccc1Cc1cc(C(=O)N[C@@H]2CCc3c2ncn3C)n(C)n1 (stereo partly drawn) [Example 166, 3-[(6-{3-Azabicyclo[3.1.0]hexan-3-yl}-2-ethylpyridin-3-yl)methyl]-1-methyl-N-[(4R)-1-methyl-1H,4H,5H,6H-cyclopenta[d]imidazol-4-yl]-1H-pyrazole-5-carboxamide] |
| 149 | 1.4 | Cn1cnc2c1CC[C@H]2NC(=O)c1cc(Cc2ccc(N3CC4C(C3)C4(F)F)nc2CO)no1 (stereo partly drawn) [Example 147, 3-[(6-{6,6-Difluoro-3-azabicyclo[3.1.0]hexan-3-yl}-2-(hydroxymethyl)pyridin-3-yl)methyl]-N-[(4R)-1-methyl-1H,4H,5H,6H-cyclopenta-[d]imidazol-4-yl]-1,2-oxazole-5-carboxamide] |
| 236 | 10.9 | CCc1nc(N2CC3C(C2)C3(F)F)ccc1Cc1ccc(C(=O)N[C@@H]2CCc3c2ncn3C)o1 (stereo partly drawn) [Example 186, 5-[(6-{6,6-difluoro-3-azabicyclo[3.1.0]hexan-3-yl}-2-ethylpyridin-3-yl)methyl]-N-[(4R)-1-methyl-1H,4H,5H,6H-cyclopenta[d]imidazol-4-yl]furan-2-carboxamide] |
| 525 | 1.9 | Cn1cnc2c1CC[C@H]2NC(=O)c1cc(Cc2ccc(N3CC4CC4C3)nc2CO)n[nH]1 (stereo partly drawn) [Example 220, 3-[(6-{3-Azabicyclo[3.1.0]hexan-3-yl}-2-(hydroxymethyl)pyridin-3-yl)methyl]-N-[(4R)-1-methyl-1H,4H,5H,6H-cyclopenta[d]imidazol-4-yl]-1H-pyrazole-5-carboxamide] |
